Key:
[1] = tested on: insulin-producing β-cells; conditions: prophylactic treatment; alloxan and streptozotocin models (ref. 48); cited from earlier work
Sir2 homologs = experiment: NAD+-dependent histone deacetylase activity of HEK-293 protein extracts; format: biochemical; conditions: data not shown
CRI-G1 cells = experiment: Cell viability assay (calcein fluorescence), CRI-G1 cells; format: cell-based, rat; conditions: 0.5-20 mM nicotinamide, 20 μM puromycin, 16 h
Method: FIG. 4 a) OAADPr gates the endogenous TRPM2 channel in CRI-G1 cells. Left panel: Evolution of currents in CRI-G1 cells in the absence (grey squares) or presence (black circles) of OAADPr (120-250 μM). Shown are average leak subtracted currents from n=3 cells for each condition. Right panel: Representative leak subtracted whole cell I/V curves for peak currents observed in the absence (grey line) and presence (black line) of OAADPr. For the above measurements, CRI-G1 cells were maintained in the whole cell patch clamp configuration as previously described for HEK-293 cells (44). b) Puromycin leads to cell death in CRI-G1 cells. CRI-G1 cells were treated with 0-40 μM puromycin for 16 h. Cell viability was assessed by measuring fluorescence of calcein in live cells. Data obtained from 4 independent experiments were plotted as a percent change in fluorescence compared to those of untreated cells set at a 100%. Error bars indicate the standard deviation from the mean. (Inset) Nicotinamide rescues puromycin-induced death in CRI-G1 cells. […] Cell viability was assessed 16 h later as described above. […] Calcein is retained in living, but not dead cells, where it undergoes catalytic conversion into a fluorescent compound Fluorescence in each well was measured in a microplate reader using excitation and emission filters at 485/530 nm, respectively.

[2] = tested on: TRPM2-expressing HEK-293 cells; experiment: Cell viability assay (calcein fluorescence), tet-inducible TRPM2 HEK-293 cells; format: cell-based
Method: Shown are HEK-293 cells (closed diamond) and HEK-293 cells stably transfected with a tet-controlled TRPM2 construct in the presence (open squares) or absence of (open diamonds) tetracycline. […] TRPM2-expressing HEK-293 cells were grown in complete DMEM media and 1 μg/ml tetracycline until 80-90% confluent. One set of cells were re-fed with the same complete media (closed diamonds) and the other set of cells were rinsed with PBS and fed with modified media containing 1 μg/ml tetracycline, 5 mM EGTA and without calcium chloride (open squares). […] HEK-293 (close diamond) and TRPM2 expressing HEK-293 cells in the absence (open diamond) or presence of (closed square) tetracycline were exposed to 0-10 μg/ml cycloheximide for 16 h. Cell viability was determined as described in (a).
TRPM2-expressing HEK-293 cells were exposed to 0-50 μM puromycin for 16 h in the presence (open diamond) or absence (closed diamond) of 500 μM nicotinamide. […] TRPM2-expressing HEK-293 cells were exposed to 0-50 μM puromycin for 16 h in the presence (open diamond) or absence (closed diamond) of 1.5 mM 3-aminobenzamide. Cell survival was determined as described in (a).
HEK-293 and tetracycline (tet)-inducible HEK-293 TRPM2-expressing cells (23) were cultured in DMEM and 10% FBS at 37° C., 5% CO2. Media used to culture tet-inducible HEK-293 cells was supplemented with blasticidin (5 μg ml^−1; Invitrogen) and zeocin (0.4 mg/ml; Invitrogen). To induce expression of TRPM2 in recombinant HEK-293 cells, tetracycline was added to the media at 1 μg ml^−1 (Invitrogen) 24 h prior to experiments. The CRI-G1 rat β-islet tumor cell line was obtained from EACC and cultured in DMEM, 10% FBS and 2 mM glutamine.
HEK-293, tet-inducible HEK-293, and CRI-G1 cells were seeded into 6 well plates at a density of 500,000 cells per well. When cells were 50-70% confluent, puromycin was added to the media at various concentrations for 16 hours. Cell monolayers were rinsed with PBS, after which 0.5 ml of 2 μM calcein in PBS was added directly to the well for 10-20 minutes. Calcein is retained in living, but not dead cells, where it undergoes catalytic conversion into a fluorescent compound Fluorescence in each well was measured in a microplate reader using excitation and emission filters at 485/530 nm, respectively.

TRPM2 channel = biological target: T1, TRPM2 channel (Homo sapiens, UniProt O94759); experiment: Whole cell patch clamp, TRPM2 channel gating in tet-induced TRPM2-expressing HEK-293 cells; format: cell-based; conditions: OAADPr in patch pipette solution; similar kinetics and dose dependence to ADP-ribose
T1 construct: expressed in transfected cells; host or cells: tetracycline-inducible HEK-293
Method: Shown is the development of whole cell currents over time in TRPM2-expressing HEK-293 cells. Bath solution was standard ringer's, and pipette solution was Cs-based and included 10 mM EGTA to buffer intracellular Ca^2+ to 10 nM. The patch pipette contained various concentrations of (FIG. 1a) ADPr, (FIG. 1b) OAADPr (FIG. 1c) OAADPr and puromycin as indicated in the figure. FIG. 1d.) Cytoplasmic OAADPr esterase activity is inhibited by puromycin. 200 μM O-[^3H]AADPr and 0-100 μM puromycin were added to cytoplasmic HEK-293 extract for 30 min. Percent hydrolysis of O-[^3H]AADPr to [^3H]acetate was measured as described hereinbelow. FIG. 1e.) Nuclear OAADPr acetyltransferase activity is not inhibited by puromycin. HEK-293 nuclear extract was incubated with 200 μM O-[^3H]AADPr in the presence or absence of 100 μM puromycin for 60 min. The reactions were quenched and resolved by HPLC. The radioactivity in collected fractions was determined by liquid scintillation counting. FIGS. 1f-g.) In vivo detection of OAADPr. Mass spectrum of HEK-293 generated OAADPr (peak m/z of 602.0894; the theoretical m/z for OAADPr is 602.0895) after puromycin treatment, with authentic [^13C]-OAADPr (peak m/z of 603.0851 and isotopic distribution of 604.0878 and 605.0928) as a standard. Peak 599.3691 is from the matrix.
Patch clamp electrophysiology was performed as previously described (23). Briefly, cells were patch clamped in the whole cell configuration at 25° C. using pipettes with resistances ranging from 2-3 MOhms. Currents were recorded on an EPC9 patch clamp amplifier with automatic capacitance compensation using a protocol generating a 50 msec voltage ramp from −100 to +100 mv every two seconds at a holding potential of 0 mv (appropriately corrected for liquid junction potential). Bath solution included 150 mM NaCl, 2.8 mM KCl, 5 mM CsCl, 1 mM CaCl2, 2 mM MgCl2, and 10 mM Hepes (pH 7.2). Pipette solution included 135 mM CsGlutamate, 1 mM MgCl2, 8 mM NaCl, 10 mM Hepes (pH 7.2), and 10 mM EGTA. […]

endogenous TRPM2 channel = biological target: T2, endogenous TRPM2 channel (Rattus norvegicus, UniProt E9PTA2); experiment: Whole cell patch clamp, endogenous TRPM2 channel in CRI-G1 cells; format: cell-based; conditions: OAADPr 120-250 μM in patch pipette, n=3 cells
T2 construct: direct OAADPr-mediated gating of endogenous TRPM2 channels in CRI-G1 cells; endogenous in cells; host or cells: CRI-G1 rat beta-islet tumor cell line
Method: FIG. 4 a) OAADPr gates the endogenous TRPM2 channel in CRI-G1 cells. Left panel: Evolution of currents in CRI-G1 cells in the absence (grey squares) or presence (black circles) of OAADPr (120-250 μM). Shown are average leak subtracted currents from n=3 cells for each condition. Right panel: Representative leak subtracted whole cell I/V curves for peak currents observed in the absence (grey line) and presence (black line) of OAADPr. For the above measurements, CRI-G1 cells were maintained in the whole cell patch clamp configuration as previously described for HEK-293 cells (44). b) Puromycin leads to cell death in CRI-G1 cells. CRI-G1 cells were treated with 0-40 μM puromycin for 16 h. Cell viability was assessed by measuring fluorescence of calcein in live cells. Data obtained from 4 independent experiments were plotted as a percent change in fluorescence compared to those of untreated cells set at a 100%. Error bars indicate the standard deviation from the mean. […] Cell viability was assessed 16 h later as described above. […]
Patch clamp electrophysiology was performed as previously described (23). […] Currents were recorded on an EPC9 patch clamp amplifier with automatic capacitance compensation using a protocol generating a 50 msec voltage ramp from −100 to +100 mv every two seconds at a holding potential of 0 mv (appropriately corrected for liquid junction potential). […]

[3] = Spontaneous breakdown of OAADPr in the patch pipette; format: physicochemical; conditions: multiple experiments
Method: Patch clamp electrophysiology was performed as previously described (23). Briefly, cells were patch clamped in the whole cell configuration at 25° C. using pipettes with resistances ranging from 2-3 MOhms. Currents were recorded on an EPC9 patch clamp amplifier with automatic capacitance compensation using a protocol generating a 50 msec voltage ramp from −100 to +100 mv every two seconds at a holding potential of 0 mv (appropriately corrected for liquid junction potential). Bath solution included 150 mM NaCl, 2.8 mM KCl, 5 mM CsCl, 1 mM CaCl2, 2 mM MgCl2, and 10 mM Hepes (pH 7.2). Pipette solution included 135 mM CsGlutamate, 1 mM MgCl2, 8 mM NaCl, 10 mM Hepes (pH 7.2), and 10 mM EGTA. For low-resolution presentation of current development over the course of the experiment, instantaneous currents at −80 mv were extracted from each ramp and plotted versus time.

T2 sequence (E9PTA2 whole entry): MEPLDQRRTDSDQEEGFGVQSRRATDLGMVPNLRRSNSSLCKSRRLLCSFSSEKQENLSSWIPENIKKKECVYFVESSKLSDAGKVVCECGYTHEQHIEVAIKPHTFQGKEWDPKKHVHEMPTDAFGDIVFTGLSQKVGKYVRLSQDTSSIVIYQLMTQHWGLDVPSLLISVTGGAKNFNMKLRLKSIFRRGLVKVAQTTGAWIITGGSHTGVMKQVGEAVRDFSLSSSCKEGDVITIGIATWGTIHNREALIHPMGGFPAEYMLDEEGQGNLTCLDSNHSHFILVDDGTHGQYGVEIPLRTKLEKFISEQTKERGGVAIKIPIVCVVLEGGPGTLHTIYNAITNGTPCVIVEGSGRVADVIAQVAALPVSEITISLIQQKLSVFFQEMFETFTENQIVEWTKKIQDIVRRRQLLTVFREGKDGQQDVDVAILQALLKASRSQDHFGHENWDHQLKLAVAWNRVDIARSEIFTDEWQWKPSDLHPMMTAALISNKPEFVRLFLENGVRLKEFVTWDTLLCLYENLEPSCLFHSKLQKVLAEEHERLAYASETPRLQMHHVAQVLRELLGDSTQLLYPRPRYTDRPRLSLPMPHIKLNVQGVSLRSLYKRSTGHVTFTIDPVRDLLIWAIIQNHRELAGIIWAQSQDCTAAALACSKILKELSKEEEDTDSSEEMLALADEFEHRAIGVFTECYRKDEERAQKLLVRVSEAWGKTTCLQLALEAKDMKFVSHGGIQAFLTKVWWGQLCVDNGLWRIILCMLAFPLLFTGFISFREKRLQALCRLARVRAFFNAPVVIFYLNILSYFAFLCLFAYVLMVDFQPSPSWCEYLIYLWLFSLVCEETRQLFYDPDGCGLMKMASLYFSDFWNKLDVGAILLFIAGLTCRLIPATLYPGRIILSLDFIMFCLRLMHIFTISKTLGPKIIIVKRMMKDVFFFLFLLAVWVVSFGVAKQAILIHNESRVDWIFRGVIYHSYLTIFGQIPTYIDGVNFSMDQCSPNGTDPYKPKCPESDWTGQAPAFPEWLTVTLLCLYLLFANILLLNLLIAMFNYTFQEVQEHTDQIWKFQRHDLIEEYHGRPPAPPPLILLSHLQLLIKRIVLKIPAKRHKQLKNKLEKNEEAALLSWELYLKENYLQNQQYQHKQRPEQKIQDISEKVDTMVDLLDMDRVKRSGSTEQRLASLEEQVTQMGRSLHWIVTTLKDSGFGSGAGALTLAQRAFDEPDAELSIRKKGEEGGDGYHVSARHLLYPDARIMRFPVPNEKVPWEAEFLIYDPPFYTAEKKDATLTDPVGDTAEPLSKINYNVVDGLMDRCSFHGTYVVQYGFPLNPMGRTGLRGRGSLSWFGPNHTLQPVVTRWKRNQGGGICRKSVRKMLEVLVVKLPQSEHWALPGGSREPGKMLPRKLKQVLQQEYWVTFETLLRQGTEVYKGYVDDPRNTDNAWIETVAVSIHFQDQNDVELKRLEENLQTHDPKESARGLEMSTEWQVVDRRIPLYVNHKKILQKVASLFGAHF
T1 sequence (O94759 whole entry): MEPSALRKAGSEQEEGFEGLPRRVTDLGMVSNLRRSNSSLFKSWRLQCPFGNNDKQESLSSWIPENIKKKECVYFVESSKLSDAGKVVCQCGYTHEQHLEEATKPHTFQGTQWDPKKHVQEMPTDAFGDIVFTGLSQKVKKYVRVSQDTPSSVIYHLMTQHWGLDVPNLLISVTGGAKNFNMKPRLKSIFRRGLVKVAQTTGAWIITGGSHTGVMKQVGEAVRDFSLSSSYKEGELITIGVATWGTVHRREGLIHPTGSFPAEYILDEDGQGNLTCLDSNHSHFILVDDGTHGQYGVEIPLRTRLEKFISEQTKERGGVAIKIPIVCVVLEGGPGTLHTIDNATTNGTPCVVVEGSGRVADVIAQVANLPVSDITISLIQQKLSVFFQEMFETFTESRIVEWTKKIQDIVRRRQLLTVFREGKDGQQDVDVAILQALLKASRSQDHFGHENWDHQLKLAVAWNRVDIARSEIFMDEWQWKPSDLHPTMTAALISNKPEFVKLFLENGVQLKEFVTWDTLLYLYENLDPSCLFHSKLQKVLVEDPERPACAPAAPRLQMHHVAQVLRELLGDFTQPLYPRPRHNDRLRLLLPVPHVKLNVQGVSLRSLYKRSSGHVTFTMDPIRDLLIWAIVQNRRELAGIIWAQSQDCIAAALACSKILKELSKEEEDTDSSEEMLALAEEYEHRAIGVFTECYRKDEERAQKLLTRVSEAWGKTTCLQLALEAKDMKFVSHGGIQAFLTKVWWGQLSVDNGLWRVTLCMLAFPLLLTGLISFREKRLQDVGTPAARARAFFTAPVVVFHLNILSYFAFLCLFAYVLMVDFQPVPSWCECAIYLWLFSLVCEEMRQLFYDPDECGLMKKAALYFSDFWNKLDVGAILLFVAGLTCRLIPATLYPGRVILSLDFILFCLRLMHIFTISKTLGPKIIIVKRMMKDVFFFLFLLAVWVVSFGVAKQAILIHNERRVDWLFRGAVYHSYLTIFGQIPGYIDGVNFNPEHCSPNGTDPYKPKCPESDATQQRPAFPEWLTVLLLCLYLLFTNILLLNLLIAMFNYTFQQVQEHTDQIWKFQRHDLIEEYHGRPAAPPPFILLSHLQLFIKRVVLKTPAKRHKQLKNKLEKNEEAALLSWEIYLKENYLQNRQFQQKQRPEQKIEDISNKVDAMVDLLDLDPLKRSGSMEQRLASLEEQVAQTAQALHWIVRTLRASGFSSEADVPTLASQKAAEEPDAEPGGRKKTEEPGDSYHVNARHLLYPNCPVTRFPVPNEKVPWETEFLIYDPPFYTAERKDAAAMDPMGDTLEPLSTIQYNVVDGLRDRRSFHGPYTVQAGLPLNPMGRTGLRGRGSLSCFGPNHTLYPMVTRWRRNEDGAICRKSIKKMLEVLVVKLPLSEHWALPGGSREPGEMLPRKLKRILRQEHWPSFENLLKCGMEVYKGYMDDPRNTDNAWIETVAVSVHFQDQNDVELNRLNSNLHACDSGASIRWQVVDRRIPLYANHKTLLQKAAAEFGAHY

For `NC(=O)c1cccnc1` [nicotinamide], the development of diabetes [1] is given as “suppress the development of diabetes”, the “NAD+-dependent histone deacetylase activity of protein extracts” value (Sir2 homologs) is given as “inhibited” and the “effect on puromycin-induced death of CRI-G1 cells” value (CRI-G1 cells) is given as “blocked”. For the same molecule, the “protection from puromycin-induced cell death at high puromycin” value ([2]; 500 μM nicotinamide, 50 μM puromycin) was “suppressed” and the “protection from puromycin-induced cell death” value ([2]; 500 μM nicotinamide, up to 20 μM puromycin, 16 h) was “completely protect”.

With O-acetyl-ADP ribose [OAADPr] the “TRPM2 gating in whole cell recordings” value (TRPM2 channel) was “induces TRPM2 gating”, the average currents induced (endogenous TRPM2 channel) was roughly 2 nA and the “spontaneous breakdown of OAADPr to ADPr in the patch pipette” value [3] was 5-10%.

With `NC(=O)c1cccc(N)c1` [3-aminobenzamide] the “effect on puromycin-induced cell death” value ([2]; 1.5 mM 3-aminobenzamide, 0-50 μM puromycin, 16 h) was “no effect”.

In the case of `C[C@@H]1C[C@@H]([C@H](O)CC2CC(=O)NC(=O)C2)C(=O)[C@@H](C)C1` [cycloheximide], the “sensitivity of TRPM2 expressing cells to cycloheximide vs cells not over-expressing the channel” value ([2]; 0-10 μg/ml cycloheximide, 16 h) is reported as “no significant increased sensitivity”.
